Test results: ChEMBL document CHEMBL5107987, “New naphtho/thienobenzo-triazoles with interconnected anti-inflammatory and cholinesterase inhibitory activity” (Eur J Med Chem, 2022)

Key:
[1] = Cytotoxicity against human PBMC assessed as effect on cell viability measured by Cell Titer Glo assay; assay type: toxicity, cell-based
[2] = target: Cholinesterase (Equus caballus) (UniProt P81908); test: Inhibition of equine serum BuChE using S-butyrylthiocholine iodide as substrate pre-incubated for 5 mins followed by substrate addition at 200 uM and measured after 6 mins by Ellman's method relative to control
[3] = Inhibition of TNF-alpha production in LPS-stimulated human PBMC measured after 24 hrs by ELISA; assay type: functional, cell-based
[4] = target: Acetylcholinesterase (Electrophorus electricus) (UniProt O42275); test: Inhibition of electric eel AChE using acetylthiocholine iodide as substrate pre-incubated for 5 mins followed by substrate addition at 1000 uM and measured after 6 mins by Ellman's method relative to control
[5] = target: Cholinesterase (Equus caballus, UniProt P81908); test: Inhibition of equine serum BuChE using S-butyrylthiocholine iodide as substrate pre-incubated for 5 mins followed by substrate addition and measured after 6 mins by Ellman's method
[6] = target: Acetylcholinesterase (Electrophorus electricus) (UniProt O42275); test: Inhibition of electric eel AChE using acetylthiocholine iodide as substrate pre-incubated for 5 mins followed by substrate addition at 500 uM and measured after 6 mins by Ellman's method relative to control
[7] = Inhibition of TNF-alpha production in LPS-stimulated human PBMC measured after 24 hrs by ELISA relative to control; assay type: functional
[8] = target: Cholinesterase (Equus caballus) (UniProt P81908); test: Inhibition of equine serum BuChE using S-butyrylthiocholine iodide as substrate pre-incubated for 5 mins followed by substrate addition at 500 uM and measured after 6 mins by Ellman's method relative to control
[9] = target: Acetylcholinesterase (Electrophorus electricus, UniProt O42275); test: Inhibition of electric eel AChE using acetylthiocholine iodide as substrate pre-incubated for 5 mins followed by substrate addition and measured after 6 mins by Ellman's method
[10] = target: Cholinesterase (Equus caballus) (UniProt P81908); test: Inhibition of equine serum BuChE using S-butyrylthiocholine iodide as substrate pre-incubated for 5 mins followed by substrate addition at 50 uM and measured after 6 mins by Ellman's method relative to control
[11] = target: Cholinesterase (Equus caballus) (UniProt P81908); test: Inhibition of equine serum BuChE using S-butyrylthiocholine iodide as substrate pre-incubated for 5 mins followed by substrate addition at 250 uM and measured after 6 mins by Ellman's method relative to control
[12] = target: Acetylcholinesterase (Electrophorus electricus) (UniProt O42275); test: Inhibition of electric eel AChE using acetylthiocholine iodide as substrate pre-incubated for 5 mins followed by substrate addition at 100 uM and measured after 6 mins by Ellman's method relative to control
[13] = target: Cholinesterase (Equus caballus) (UniProt P81908); test: Inhibition of equine serum BuChE using S-butyrylthiocholine iodide as substrate pre-incubated for 5 mins followed by substrate addition at 100 uM and measured after 6 mins by Ellman's method relative to control
[14] = target: Cholinesterase (Equus caballus) (UniProt P81908); test: Inhibition of equine serum BuChE using S-butyrylthiocholine iodide as substrate pre-incubated for 5 mins followed by substrate addition at 800 uM and measured after 6 mins by Ellman's method relative to control
[15] = target: Acetylcholinesterase (Electrophorus electricus) (UniProt O42275); test: Inhibition of electric eel AChE using acetylthiocholine iodide as substrate pre-incubated for 5 mins followed by substrate addition at 800 uM and measured after 6 mins by Ellman's method relative to control

Sequence of Acetylcholinesterase (Electrophorus electricus) (O42275 24-633 limits assumed): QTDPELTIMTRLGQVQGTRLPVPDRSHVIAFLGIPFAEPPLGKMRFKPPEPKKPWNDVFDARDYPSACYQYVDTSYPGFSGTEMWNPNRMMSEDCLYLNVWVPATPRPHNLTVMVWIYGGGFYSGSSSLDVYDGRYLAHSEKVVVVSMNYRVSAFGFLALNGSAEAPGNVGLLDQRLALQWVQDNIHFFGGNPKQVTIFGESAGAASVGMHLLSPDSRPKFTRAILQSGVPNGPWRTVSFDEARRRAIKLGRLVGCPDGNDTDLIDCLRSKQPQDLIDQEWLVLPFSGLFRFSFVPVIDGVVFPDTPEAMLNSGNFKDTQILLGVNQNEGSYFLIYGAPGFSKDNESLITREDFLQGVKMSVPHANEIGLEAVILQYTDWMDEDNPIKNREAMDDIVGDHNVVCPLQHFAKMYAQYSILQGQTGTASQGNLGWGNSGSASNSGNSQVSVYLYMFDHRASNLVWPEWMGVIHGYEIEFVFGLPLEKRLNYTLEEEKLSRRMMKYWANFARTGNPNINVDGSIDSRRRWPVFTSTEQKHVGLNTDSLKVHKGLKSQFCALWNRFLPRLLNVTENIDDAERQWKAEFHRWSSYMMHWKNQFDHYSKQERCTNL
Sequence of Cholinesterase (Equus caballus) (P81908 whole entry): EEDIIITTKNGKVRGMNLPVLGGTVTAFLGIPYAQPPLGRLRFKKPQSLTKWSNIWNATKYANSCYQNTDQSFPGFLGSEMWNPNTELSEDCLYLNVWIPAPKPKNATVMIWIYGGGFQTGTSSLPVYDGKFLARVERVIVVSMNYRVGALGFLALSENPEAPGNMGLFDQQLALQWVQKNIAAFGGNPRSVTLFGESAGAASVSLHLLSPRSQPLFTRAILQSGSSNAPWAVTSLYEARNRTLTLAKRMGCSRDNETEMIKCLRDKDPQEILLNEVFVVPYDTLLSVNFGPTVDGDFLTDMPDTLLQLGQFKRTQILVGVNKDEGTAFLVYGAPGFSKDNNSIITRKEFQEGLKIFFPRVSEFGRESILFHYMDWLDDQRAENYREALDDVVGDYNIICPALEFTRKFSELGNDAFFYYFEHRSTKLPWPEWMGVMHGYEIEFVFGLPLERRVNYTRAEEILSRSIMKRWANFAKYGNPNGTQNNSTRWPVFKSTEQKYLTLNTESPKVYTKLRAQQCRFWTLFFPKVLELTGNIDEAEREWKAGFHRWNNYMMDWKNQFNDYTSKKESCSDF
Sequence of Cholinesterase (P81908 whole entry): as above
Sequence of Acetylcholinesterase (O42275 whole entry): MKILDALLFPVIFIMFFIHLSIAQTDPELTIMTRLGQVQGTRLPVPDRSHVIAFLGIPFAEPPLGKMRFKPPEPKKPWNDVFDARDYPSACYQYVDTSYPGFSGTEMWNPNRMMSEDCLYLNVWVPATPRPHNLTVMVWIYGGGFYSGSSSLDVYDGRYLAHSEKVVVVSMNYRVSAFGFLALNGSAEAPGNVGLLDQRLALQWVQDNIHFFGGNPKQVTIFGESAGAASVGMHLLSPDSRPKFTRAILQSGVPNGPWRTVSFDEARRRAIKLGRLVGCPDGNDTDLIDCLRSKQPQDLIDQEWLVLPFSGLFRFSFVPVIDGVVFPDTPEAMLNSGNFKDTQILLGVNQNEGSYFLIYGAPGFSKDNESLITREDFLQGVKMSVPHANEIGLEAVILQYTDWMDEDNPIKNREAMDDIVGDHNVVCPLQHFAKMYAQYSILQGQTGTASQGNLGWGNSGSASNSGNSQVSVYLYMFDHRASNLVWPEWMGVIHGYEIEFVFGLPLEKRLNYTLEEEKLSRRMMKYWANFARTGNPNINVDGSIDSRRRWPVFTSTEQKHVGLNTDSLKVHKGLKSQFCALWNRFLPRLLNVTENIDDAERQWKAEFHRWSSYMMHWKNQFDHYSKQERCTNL

For `CCCn1cc(/C=C\c2cccs2)nn1`, the Activity [1] was “Non-Toxic”, the inhibition [2] was 66.1% and the IC50 [3] was greater than 33 µM. The inhibition [4] was 21.9% and the IC50 [5] was 95.6 µM.
With `C[C@@H]1C[C@H]2[C@@H]3CCC4=CC(=O)C=C[C@]4(C)[C@@]3(F)[C@@H](O)C[C@]2(C)[C@@]1(O)C(=O)CO` [DEXAMETHASONE] the IC50 [3] was 0.0036 µM.
With `COc1ccc2ccc3nnn(CCCCO)c3c2c1` the Activity [1] was “Non-Toxic” and the IC50 [3] was 7.9 µM.
In the case of `O=[N+]([O-])c1ccc(-n2nnc3ccc4sccc4c32)cc1`, the inhibition [6] is reported as 43.3%, the “inhibition (INH)” value [7] is reported as less than 50% and the inhibition [8] is reported as 53.4%. It also gave an IC50 [5] of 449 µM.
In the case of `COc1ccc(Cn2nnc3ccc4cccc(C#N)c4c32)cc1`, the “inhibition (INH)” value [7] is reported as less than 50%.
For `C=CCn1cc(/C=C/c2cccs2)nn1`, the Activity [1] was “Non-Toxic” and the IC50 [3] was greater than 33 µM.
With `CC(c1ccccc1)n1cc(/C=C\c2cccs2)nn1` (stereo not drawn) the Activity [1] was “Non-Toxic” and the IC50 [3] was greater than 33 µM.
In the case of `CC(C)n1nnc2ccc3ccc(Cl)cc3c21`, the Activity [1] is reported as “Non-Toxic” and the IC50 [3] is reported as 22.2 µM.
In the case of `CC(C)n1nnc2ccc3ccccc3c21`, the “inhibition (INH)” value [7] is reported as less than 50%.
In the case of `C(=C/c1cccs1)/c1cn(CCc2cc3ccccc3[nH]2)nn1`, the Activity [1] is reported as “Non-Toxic”, the IC50 [3] is reported as greater than 33 µM and the inhibition [6] is reported as 67.4%. For the same compound, the inhibition [8] was 59.5%, the IC50 [5] was 234 µM and the IC50 [9] was 596 µM.
In the case of `C=CCn1nnc2ccc3sccc3c21`, the Activity [1] is reported as “Non-Toxic”, the IC50 [3] is reported as 27.7 µM and the inhibition [6] is reported as 76.9%. The inhibition [10] was 80%, the IC50 [5] was 3.8 µM and the IC50 [9] was 56.2 µM.
With `COc1ccc(Cn2cc(/C=C/c3ccccc3C#N)nn2)cc1` the Activity [1] was “Non-Toxic” and the IC50 [3] was greater than 33 µM.
With `CCCn1cc(/C=C/c2cccs2)nn1` the Activity [1] was “Non-Toxic”, the IC50 [3] was greater than 33 µM and the inhibition [11] was 79.2%. It also gave an inhibition [6] of 36.9%.
With `C=CCn1cc(/C=C\c2cccs2)nn1` the Activity [1] was “Non-Toxic” and the IC50 [3] was greater than 33 µM.
For `COc1ccc(Cn2cc(/C=C\c3ccccc3C#N)nn2)cc1`, the Activity [1] was “Non-Toxic” and the IC50 [3] was greater than 33 µM.
In the case of `COc1ccc(Cn2nnc3ccc4ccc(OC)cc4c32)cc1`, the Activity [1] is reported as “Non-Toxic” and the IC50 [3] is reported as 2.2 µM.
For `CCCn1nnc2ccc3sccc3c21`, the inhibition [2] was 91.7%, the inhibition [4] was 56.2% and the “inhibition (INH)” value [7] was less than 50%.
For `O=[N+]([O-])c1ccc(-n2cc(/C=C\c3cccs3)nn2)cc1`, the inhibition [12] was 34.1% and the inhibition [13] was 12.3%.
With `OCCCCn1cc(/C=C\c2cccs2)nn1` the inhibition [14] was 48.7% and the inhibition [15] was 45.2%.
For `c1ccc2[nH]c(CCn3nnc4ccc5sccc5c43)cc2c1`, the Activity [1] was “Non-Toxic” and the “inhibition (INH)” value [7] was less than 50%.
